# Laboratory results published in ChEMBL document CHEMBL2434896, “Carbonic anhydrase inhibitors. Synthesis of heterocyclic 4-substituted pyridine-3-sulfonamide derivatives and their inhibition of the human cytosolic isozymes I and II and transmembrane tumor-associated isozymes IX and XII” (Eur J Med Chem, 2013).
# Activity calls are given as the source filed them. The rule behind the calls is not given here.
# How the values were obtained:
# LOX IMVI = assay: Growth inhibition of human LOXIMVI cells at 10 uM after 48 hrs by sulforhodamine B assay; type: functional
# U-251 = assay: Growth inhibition of human U251 cells at 10 uM after 48 hrs by sulforhodamine B assay; type: functional
# SF-539 = assay: Growth inhibition of human SF539 cells at 10 uM after 48 hrs by sulforhodamine B assay; type: functional; conditions: SF-539, 48 h, read-out: GI
# SF-295 = assay: Growth inhibition of human SF295 cells at 10 uM after 48 hrs by sulforhodamine B assay; type: functional
# SF-268 = assay: Growth inhibition of human SF268 cells at 10 uM after 48 hrs by sulforhodamine B assay; type: functional
# KM12 = assay: Growth inhibition of human KM12 cells at 10 uM after 48 hrs by sulforhodamine B assay; type: functional; conditions: KM12, 48 h, read-out: GI
# HCT-15 = assay: Growth inhibition of human HCT15 cells at 10 uM after 48 hrs by sulforhodamine B assay; type: functional; conditions: HCT-15, 48 h, read-out: GI
# HCT-116 = assay: Growth inhibition of human HCT116 cells at 10 uM after 48 hrs by sulforhodamine B assay; type: functional; conditions: HCT-116, 48 h, read-out: GI
# HCC 2998 = assay: Growth inhibition of human HCC2998 cells at 10 uM after 48 hrs by sulforhodamine B assay; type: functional
# COLO 205 = assay: Growth inhibition of human COLO205 cells at 10 uM after 48 hrs by sulforhodamine B assay; type: functional
# NCI-H522 = assay: Growth inhibition of human NCI-H522 cells at 10 uM after 48 hrs by sulforhodamine B assay; type: functional; conditions: NCI-H522, 48 h, read-out: GI
# NCI-H460 = assay: Growth inhibition of human NCI-H460 cells at 10 uM after 48 hrs by sulforhodamine B assay; type: functional
# NCI-H322M = assay: Growth inhibition of human NCI-H322M cells at 10 uM after 48 hrs by sulforhodamine B assay; type: functional
# HOP-62 = assay: Growth inhibition of human HOP62 cells at 10 uM after 48 hrs by sulforhodamine B assay; type: functional
# A549 = assay: Growth inhibition of human A549/ATCC cells at 10 uM after 48 hrs by sulforhodamine B assay; type: functional; conditions: A549, 48 h, read-out: GI
# SR = assay: Growth inhibition of human SR cells at 10 uM after 48 hrs by sulforhodamine B assay; type: functional; conditions: read-out: GI
# RPMI-8226 = assay: Growth inhibition of human RPMI8226 cells at 10 uM after 48 hrs by sulforhodamine B assay; type: functional; conditions: RPMI-8226, 48 h, read-out: GI
# MOLT-4 = assay: Growth inhibition of human MOLT4 cells at 10 uM after 48 hrs by sulforhodamine B assay; type: functional; conditions: MOLT-4, 48 h, read-out: GI
# K562 = assay: Growth inhibition of human K562 cells at 10 uM after 48 hrs by sulforhodamine B assay; type: functional; conditions: K562, 48 h, read-out: GI
# HL-60(TB) = assay: Growth inhibition of human HL-60(TB) cells at 10 uM after 48 hrs by sulforhodamine B assay; type: functional; conditions: HL-60, 48 h, read-out: GI
# CCRF-CEM = assay: Growth inhibition of human CCRF-CEM cells at 10 uM after 48 hrs by sulforhodamine B assay; type: functional; conditions: read-out: GI
# Carbonic anhydrase 9 = Carbonic anhydrase 9 (Homo sapiens, UniProt Q16790); assay: Inhibition of human carbonic anhydrase 9 after 15 mins by stopped flow CO2 hydration assay
# MDA-MB-468 = assay: Growth inhibition of human MDA-MB-468 cells at 10 uM after 48 hrs by sulforhodamine B assay; type: functional; conditions: MDA-MB-468, 48 h, read-out: GI
# T47D = assay: Growth inhibition of human T47D cells at 10 uM after 48 hrs by sulforhodamine B assay; type: functional; conditions: read-out: GI
# BT-549 = assay: Growth inhibition of human BT549 cells at 10 uM after 48 hrs by sulforhodamine B assay; type: functional; conditions: BT-549, 48 h, read-out: GI
# Hs-578T = assay: Growth inhibition of human Hs 578T cells at 10 uM after 48 hrs by sulforhodamine B assay; type: functional
# MDA-MB-231 = assay: Growth inhibition of human MDA-MB-231 cells at 10 uM after 48 hrs by sulforhodamine B assay; type: functional
# DU-145 = assay: Growth inhibition of human DU145 cells at 10 uM after 48 hrs by sulforhodamine B assay; type: functional
# PC-3 = assay: Growth inhibition of human PC3 cells at 10 uM after 48 hrs by sulforhodamine B assay; type: functional; conditions: PC-3, 48 h, read-out: GI
# UO-31 = assay: Growth inhibition of human UO31 cells at 10 uM after 48 hrs by sulforhodamine B assay; type: functional; conditions: UO-31, 48 h, read-out: GI
# TK-10 = assay: Growth inhibition of human TK10 cells at 10 uM after 48 hrs by sulforhodamine B assay; type: functional
# RXF 393 = assay: Growth inhibition of human RXF393 cells at 10 uM after 48 hrs by sulforhodamine B assay; type: functional
# CAKI-1 = assay: Growth inhibition of human CAKI-1 cells at 10 uM after 48 hrs by sulforhodamine B assay; type: functional; conditions: CAKI-1, 48 h, read-out: GI
# ACHN = assay: Growth inhibition of human ACHN cells at 10 uM after 48 hrs by sulforhodamine B assay; type: functional
# SK-OV-3 = assay: Growth inhibition of human SKOV3 cells at 10 uM after 48 hrs by sulforhodamine B assay; type: functional; conditions: SK-OV-3, 48 h, read-out: GI
# NCI/ADR-RES = assay: Growth inhibition of human NCI-ADR-RES cells at 10 uM after 48 hrs by sulforhodamine B assay; type: functional
# OVCAR-5 = assay: Growth inhibition of human OVCAR5 cells at 10 uM after 48 hrs by sulforhodamine B assay; type: functional; conditions: OVCAR-5, 48 h, read-out: GI
# OVCAR-4 = assay: Growth inhibition of human OVCAR4 cells at 10 uM after 48 hrs by sulforhodamine B assay; type: functional; conditions: OVCAR-4, 48 h, read-out: GI
# OVCAR-3 = assay: Growth inhibition of human OVCAR3 cells at 10 uM after 48 hrs by sulforhodamine B assay; type: functional
# IGROV-1 = assay: Growth inhibition of human IGROV1 cells at 10 uM after 48 hrs by sulforhodamine B assay; type: functional; conditions: IGROV-1, 48 h, read-out: GI
# UACC-62 = assay: Growth inhibition of human UACC62 cells at 10 uM after 48 hrs by sulforhodamine B assay; type: functional; conditions: UACC-62, 48 h, read-out: GI
# SK-MEL-5 = assay: Growth inhibition of human SK-MEL-5 cells at 10 uM after 48 hrs by sulforhodamine B assay; type: functional; conditions: SK-MEL-5, 48 h, read-out: GI
# SK-MEL-28 = assay: Growth inhibition of human SK-MEL-28 cells at 10 uM after 48 hrs by sulforhodamine B assay; type: functional, cell-based
# SK-MEL-2 = assay: Growth inhibition of human SK-MEL-2 cells at 10 uM after 48 hrs by sulforhodamine B assay; type: functional
# MDA-MB-435 = assay: Growth inhibition of human MDA-MB-435 cells at 10 uM after 48 hrs by sulforhodamine B assay; type: functional
# M14 = assay: Growth inhibition of human M14 cells at 10 uM after 48 hrs by sulforhodamine B assay; type: functional
smiles,measurement,setting,value
NS(=O)(=O)c1cnccc1N1CCC(Cc2ccccc2)CC1,growth inhibition (GI),LOX IMVI,inactive
same,growth inhibition (GI),U-251,inactive
same,inhibition of growth at 10 µM,SF-539,4%
same,growth inhibition (GI),SF-295,inactive
same,growth inhibition (GI),SF-268,inactive
same,inhibition of growth at 10 µM,KM12,2%
same,inhibition of growth at 10 µM,HCT-15,2%
same,inhibition of growth at 10 µM,HCT-116,10%
same,growth inhibition (GI),HCC 2998,inactive
same,growth inhibition (GI),COLO 205,inactive
same,inhibition of growth at 10 µM,NCI-H522,12%
same,growth inhibition (GI),NCI-H460,inactive
same,growth inhibition (GI),NCI-H322M,inactive
same,growth inhibition (GI),HOP-62,inactive
same,inhibition of growth at 10 µM,A549,1%
same,inhibition of growth at 10 µM,SR,18%
same,inhibition of growth at 10 µM,RPMI-8226,11%
same,inhibition of growth at 10 µM,MOLT-4,9%
same,inhibition of growth at 10 µM,K562,9%
same,inhibition of growth at 10 µM,HL-60(TB),3%
same,inhibition of growth at 10 µM,CCRF-CEM,3%
same,Ki,Carbonic anhydrase 9,0.136 µM
same,inhibition of growth at 10 µM,MDA-MB-468,8%
same,inhibition of growth at 10 µM,T47D,10%
same,inhibition of growth at 10 µM,BT-549,13%
same,growth inhibition (GI),Hs-578T,inactive
same,growth inhibition (GI),MDA-MB-231,inactive
same,growth inhibition (GI),DU-145,inactive
same,inhibition of growth at 10 µM,PC-3,2%
same,inhibition of growth at 10 µM,UO-31,21%
same,growth inhibition (GI),TK-10,inactive
same,growth inhibition (GI),RXF 393,inactive
same,inhibition of growth at 10 µM,CAKI-1,3%
same,growth inhibition (GI),ACHN,inactive
same,inhibition of growth at 10 µM,SK-OV-3,2%
same,growth inhibition (GI),NCI/ADR-RES,inactive
same,inhibition of growth at 10 µM,OVCAR-5,1%
same,inhibition of growth at 10 µM,OVCAR-4,2%
same,growth inhibition (GI),OVCAR-3,inactive
same,inhibition of growth at 10 µM,IGROV-1,3%
same,inhibition of growth at 10 µM,UACC-62,3%
same,inhibition of growth at 10 µM,SK-MEL-5,4%
same,growth inhibition (GI),SK-MEL-28,inactive
same,growth inhibition (GI),SK-MEL-2,inactive
same,growth inhibition (GI),MDA-MB-435,inactive
same,growth inhibition (GI),M14,inactive
